Values quoted from earlier work in patent US20080044468A1, “Processes For The Preparation Of Oral Dosage Formulations Of Modafinil” (priority 2002, published 2008).

Conditions: background statement

In the case of `NC(=O)C[S+]([O-])C(c1ccccc1)c1ccccc1` (stereo not shown) [modafinil], the Solubility in water is listed as “less than 1 mg/ml”.
